Where no end group is shown, it is not given here. MBP = not defined here
Experiments:
IZN36-MBP = experiment: co-precipitation with biotinylated IZN36-MBP on streptavidin beads; format: binding; conditions: SDS-PAGE
Experimental: This mixture is then added to magnetic streptavidin beads (Dynal), which bind to the biotinylated IZN36-MBP.

HXB2 Env = molecular target: T1, HXB2 Env (Human immunodeficiency virus type 1 group M subtype B, UniProt P04578); format: cell-based, HIV-1; conditions: range over cell-cell fusion and viral infectivity assays
T1 construct: expressed in transfected cells; host or cells: Chinese hamster ovary cells expressing HXB2 Env, mixed with HeLa-CD4-LTR-β-galactosidase cells
Experimental: Cell-cell fusion was monitored. HXB2 Env-expressing Chinese hamster ovary cells were mixed with HeLa-CD4-LTR-β-galactosidase cells in the presence of inhibitors for 20 h at 37° C. Syncytia were stained with 5-bromo-4-chloro-3-indolyl-β-D-galactopyranoside (X-gal) and counted.
Viral infectivity was measured by the following method: pseudotyped viruses were produced by co-transfecting 293T cells using FuGENE (Roche Applied Science) with pNL4-3.Luc.R-E- and either pEBB-HXB2 or pEBB-JRFL. After 36-48 h, viral supernatants were collected and sterile filtered. HXB2 or JRFL pseudotyped virus was added to HOS-CD4-fusin or HOS-CD4-CCR5 cells, respectively, in the presence of inhibitors. HXB2 assays included 20 μg/ml DEAE-dextran. After 12 h, virus and inhibitor were removed and replaced with fresh media. Cells were lysed 40-44 h after infection using Glo lysis buffer (Promega), and luciferase activity was measured using Bright-Glo (Promega). IC50 values for both assays were calculated by fitting data to the equation, y=k/(1+[inhibitor]/IC50), where y is the normalized number of syncytia or luciferase activity and k is the scaling constant.

Substance: MBP-C37: Escherichia coli maltose-binding protein fused by Ser5Gly2 linker to C37 ({MBP}-SSSSSGGHTTWMEWDREINNYTSLIHSLIEESQNQQEKNEQELLHHHHHH; reading uncertain; also: fused to maltose-binding protein (not in chain))
- binding to IZN36-MBP (IZN36-MBP): reduced binding
- reduction in potency relative to C37 (HXB2 Env): 75-228 fold

From patent publication US20070122429A1, “Designed antigens to elicit neutralizing antibodies against sterically restricted antigen and method of using same” (priority 2005, published 2007)
